Data from patent US5811428A, “Pyrimidine carboxamides and related compounds and methods for treating inflammatory conditions” (Signal Pharmaceuticals, Inc., priority 1995, dated 1998).
Where two headings read alike, the source gives them in different places.

What was measured:
NFκB / AP-1 = test: Inhibition of the activation of NFκB and AP-1 (luciferase reporter Jurkat T-cells, PMA/PHA stimulated); format: cell-based, human; details: stable Jurkat T-cells, read-out: NFκ/AP-1 IC50
Procedure: Stable human Jurkat T-cells containing an NFκB binding site (from the MHC promoter) fused to a minimal SV-40 promoter driving luciferase expression were used in this experiment. Cells were split to 3×10^5 cells/mL every 2-3 days (cell concentration should not exceed 1×10^6 cells/mL to keep the cells proliferating in log phase). These cells were counted, resuspended in fresh medium containing 10% Serum-Plus at a density of 1×10^6 cells/mL and plated in 96 well round bottom plates (200 μL per well) 18 hours prior to starting the experiment.
Compounds of this invention, dissolved in dimethyl sulfoxide (3.3, 0.33 and 0.03 μg/mL), were then added to the 96 well plates containing the cells and the plates are incubated for 0.5 h at 37° C. Then 50 ng/mL of phorbol 12-myristate-13-acetate (PMA) and 1 μg/mL of phytohemagglutinin (PHA) was added to each well and the cells were incubated for an additional 5 h at 37° C. The plates were centrifuged at 2200 RPM for 3 minutes at room temperature and then the medium was removed. To each well was added 60 μL of cell lysis buffer and the plates were left at room temperature for 0.25 h. Then 40 μL of each cell extract was transferred to a black 96 well plate and 50 μL of luciferase substrate buffer was added. Luminescence was immediately measured using a Packard TopCount.
For AP-1, the assay was run as described above for NFκB except stable Jurkat T-cells were used that contained a the -73 collagenase promoter driving luciferase expression. In addition, the concentration of PMA used was 5 ng/mL.

β-actin = β-actin control cell line (effects on transcription); format: cell-based; details: control for effects on transcription; FIG. 3
Text: The results of the above assays for a representative compound of this invention, 2-chloro-4-trifluoromethyl-5-N-(3',5'-bistrifluoromethylphenyl)pyrimidine carboxamide, as percent inhibition versus control are presented in FIG. 3. This figure also indicates activity of β-actin which was employed in these assays as a control cell line indicating effects on transcription.

[1] = tested on: alloantigen-induced PLN proliferation; test: Murine popliteal lymph node (PLN) assay, graft vs. host model; format: in vivo, C3H mice (donor BALB/c mice)
Text: The murine popliteal lymph node (PLN) assay is a graft vs. host model that predicts activity of compounds in blocking human transplant rejection. The delayed-type hypersensitivity response to oxazolone is a standard contact sensitivity model. Both of these models are used routinely to evaluate compounds that are used clinically.
Spleens were removed from donor BALB/c mice and splenocytes were isolated then irradiated (3,000 rads) to prevent donor cell proliferation. After washing and adjusting cell density, 2.5×10^6 cells were injected subcutaneously into the left hind footpad of C3H mice. On day 4, the mice were sacrificed and left popliteal lymph nodes (PLNs) were weighed.
For doses of 10, 20 and 30 mg/kg, appropriate dilutions of the stock solution were made so that 0.1 mL/10 g body weight was administered by intraperitoneal injection.

[2] = tested on: DTH response to oxazolone; test: Delayed type hypersensitivity study (oxazolone contact sensitivity model); format: in vivo, mice; details: for Right-Left Ear (mean ± SEM): ear thickness difference 24 h after challenge, vehicle 0.30 ± 0.02
Procedure: On day 0, oxazolone (100 μL of a 3% solution) was applied to the shaved abdomen of mice. On day 7, a challenge application of oxazolone was applied (10 μL) around the right ear. […] It was prepared immediately prior to use by suspending it in 0.25% methyl cellulose (Sigma) using a glass-teflon homogenizer. For each dose, 0.1 mL/10 g body weight of the suspension was administered. The compound was prepared at the highest concentration for that study and appropriate dilutions of the stock solution were made so that 0.1 mL/10 g body weight was administered. Twenty four hours later, the difference in right vs. left ear thickness was measured.

[3] = tested on: alloantigen-induced PLN proliferation; details: Morris et al., Transplantation Proceedings 22(Suppl. 1):110-112, 1990; cited from earlier work
[4] = tested on: DTH response to oxazolone; details: Morris et al., Transplantation Proceedings 22(Suppl. 1):110-112, 1990; cited from earlier work

Compound	IC50 (NFκB / AP-1; Homo sapiens)	also measured
O=C(Nc1cc(C(F)(F)F)cc(C(F)(F)F)c1)c1cnc(Cl)nc1-c1ccccc1 [Example 43, 2-CHLORO-4-PHENYL-5-N-[3',5'-BIS(TRIFLUOROMETHYL)PHENYL]PYRIMIDINE CARBOXAMIDE]	0.5 µM	
O=C(Nc1cc(C(F)(F)F)cc(C(F)(F)F)c1)c1cnc(Cl)nc1C(F)(F)F [Example 1, 2-CHLORO-4-TRIFLUOROMETHYL-5-N-[3',5'-BIS(TRIFLUOROMETHYL)PHENYL]PYRIMIDINECARBOXAMIDE]	0.03 µM	activity of β-actin (control cell line) (β-actin): lack of β-actin activity; inhibition of PLN proliferation ([1]; 10 mg/kg, once daily intraperitoneal, day 0 through day 4): 52%; suppression of alloantigen-induced PLN proliferation (in words) ([1]; 10, 20 and 30 mg/kg i.p.): dose-dependent suppression of alloantigen-induced PLN proliferation; Right-Left Ear (mean ± SEM) ([2]; 10 mg/kg (i.p.)): 0.27 ± 0.01; animal deaths during study ([2]; 30 mg/kg (i.p.)): One animal died during study; Right-Left Ear (mean ± SEM) ([2]; 30 mg/kg (i.p.)): 0.13 ± 0.02; attenuation of the delayed-type response to oxazolone ([2]; 30 mg/kg i.p.): 56%
Cc1nc(Cl)ncc1C(=O)Nc1cc(C(F)(F)F)cc(C(F)(F)F)c1 [Example 39, 2-CHLORO-4-METHYL-5-N-[3',5'-BIS(TRIFLUOROMETHYL)PHENYL]PYRIMIDINE CARBOXAMIDE]	0.075 µM	
CCOC(=O)c1cc(NC(=O)c2cnc(Cl)nc2C(F)(F)F)cc(C(F)(F)F)c1 [Example 12, 2-CHLORO-4-TRIFLUOROMETHYL-5-N-(3'-TRIFLUOROMETHYL-5'-ETHOXYCARBONYLPHENYL)PYRIMIDINE CARBOXAMIDE]	0.4 µM	
O=C(Nc1ccc(C(F)(F)F)cc1)c1cnc(Cl)nc1C(F)(F)F [Example 2, 2-CHLORO-4-TRlFLUOROMETHYL-5-N(4'-TRIFLUOROMETHYLPHENYL)PYRIMIDINE CARBOXAMIDE]	0.75 µM	
O=P1(N(CCCl)CCCl)NCCCO1 (stereo not shown) [Cyclophosphamide, reference compound]		Right-Left Ear (mean ± SEM) ([2]; 50 mg/kg (i.p.)): 0.08 ± 0.01; attenuation of the delayed-type response to oxazolone ([2]; 50 mg/kg i.p.): 73%; activity in the PLN model (in words) [3]: active; activity in the contact sensitivity model (in words) [4]: active
2-[N-(1-AMINOCITRACONAMIDE)]-4-TRIFLUOROMETHYL-5-[N-(3',5'-DICHLOROPHENYL)]-PYRIMIDINE-5-CARBOXAMIDE [Example 45]		IC50 (NFκB / AP-1): 2 µM
CN(C(=O)c1cnc(Cl)nc1C(F)(F)F)c1cc(Cl)cc(Cl)c1 [Example 13, 2-CHLORO-4-TRIFLUOROMETHYL-5-N-(3',5'-DICHLOROPHENYL)-5-N-(METHYL)PYRIMIDINE CARBOXAMIDE]	5 µM	
O=C(Nc1cc(Cl)cc(Cl)c1O)c1cnc(Cl)nc1C(F)(F)F [Example 8, 2-CHLORO-4-TRIFLUOROMETHYL-5-N-(3',5'-DICHLORO-6'-HYDROXYPHENYL)PYRIMIDINE CARBOXAMIDE]	6 µM	
CC(=O)Nc1cc(NC(=O)c2cnc(Cl)nc2C(F)(F)F)ccc1F [Example 10, 2-CHLORO-4-TRIFLUOROMETHYL-5-N-(3'-N-ACYL-4'-FLUORO-ANILINE)PYRIMIDINE CARBOXAMIDE]	1 µM	

Now from value to compound, other results behind:

IC50 (NFκB / AP-1; Homo sapiens)	Compound	also measured
0.8 µM	Cc1nc(Cl)nc(Cl)c1C(=O)Nc1cc(C(F)(F)F)cc(C(F)(F)F)c1 [Example 15, 5-N-[3',5'-BIS(TRIFLUOROMETHYL)PHENYL]2,4-DICHLORO-6-METHYLPYRIMIDINE CARBOXAMIDE]	
0.8 µM	O=C(Nc1cc(Cl)c(Cl)c(Cl)c1)c1cnc(Cl)nc1C(F)(F)F [Example 6, 2-CHLORO-4-TRIFLUOROMETHYL-5-N-(3',4',5'-TRICHLOROPHENYL)PYRIMIDINE CARBOXAMIDE]	
> 10 µM	N#Cc1ncc(C(=O)Nc2cc(C(F)(F)F)cc(C(F)(F)F)c2)c(C(F)(F)F)n1 [Example 42, 2-CYANO-4-TRIFLUOROMETHYL-5-N-[3',5'-BIS(TRIFLUOROMETHYL)PHENYL]PYRIMIDINE CARBOXAMIDE]	
0.6 µM	O=C(Nc1cc(C(F)(F)F)cc(C(F)(F)F)c1)c1cnc(Cl)nc1Cl [Example 41, 2,4-DICHLORO-5-N-[3',5'-BIS(TRIFLUOROMETHYL)PHENYL]PYRIMIDINE-5-CARBOXAMIDE]	
5 µM	NC(=O)c1cc(NC(=O)c2cnc(Cl)nc2C(F)(F)F)cc(C(F)(F)F)c1 [Example 11, 2-CHLORO-4-TRIFLUOROMETHYL-5-N-(3'-TRIFLUOROMETHYL-5'-CARBOXAMIDEPHENYL) PYRIMIDINE CARBOXAMIDE]	
